From patent US10995054B2, “Hyperpolarized [3-13C]acetoacetate and methods of using the same” (Agency for Science, Technology and Research, priority 2016, dated 2021)
Values joined by “and” are separate entries in the source; they are usually repeats but may differ in a detail not shown here. Equal entries are not always repeated. Where two headings read alike, the source gives them in different places.

What was measured:
[1] = 0.240 mmol/kg i.v.
[2] = Hyperpolarization (DNP) and lifetime of [3-13C]acetoacetate; assay type: physicochemical
Method: Approximately 51 mg of [3-^13C]acetoacetate, doped with 5.5 mg of trityl-radical (OX063, GE Healthcare), 250 μl of gadoterate meglumine (1.2 mmol/L, Dotarem®, Guerbet) and […] of DMSO (25% v/v) was prepared. Total volume is approximately […], resulting in 1.23 mol/L of [3-^13C]acetoacetate, 9.3 mmol/L of OX063, and 0.80 mmol/L of gadolinium. […] of the sample was hyperpolarized in a polarizer (Hypersense, Oxford Instruments, Oxford, UK), with 120 min of microwave irradiation at 94.097 GHz. The polarized sample was subsequently dissolved in 3 mL of pressurized and heated Tris-EDTA buffer with pH 7.80, to yield a solution of 80 mmol/L hyperpolarized [3-^13C]acetoacetate with a polarization of 10% and physiological temperature and pH.
The Examiner first determined whether the synthesized [3-^13C]acetoacetate can be hyperpolarized with sufficient polarization and lifetime for in vivo application. After 120 minutes of microwave irradiation at 1.2 K, the achieved polarization was 10.3±1.2% and T1 was 28.2±3.1 s. Besides the main substrate peak at 209.9 ppm and the natural abundance [1-^13C]acetoacetate at 174.6 ppm, an impurity peak was detected at 181.0 ppm. The amplitude of the impurity peak is 0.19±0.01% of the [3-^13C]acetoacetate signal. The impurity peak is very close to the expected [5-^13C]glutamate peak at 181.2 ppm (FIG. 2B). […]

[3] = test system: myocardial ketone body utilization; test: Ketone body utilization in the heart in vivo measured by hyperpolarized 13C-MRS; design: species or system rat
Description: Male non-obese diabetic Goto-Kakizaki (GK/MolTac; n=10) rats bred by Taconic (New York, US) were ordered from InVivos (Singapore). Male wild-type Wistar Han rats (n=10) were purchased from InVivos (Singapore) and served as controls. At 24 weeks of age, the animals underwent ^13C MRS and MRI to determine myocardial ketone body utilization and cardiac function. The animals were anaesthetized with isoflurane (3% for induction; 1.5-2% for maintenance) in medical air and oxygen at a flow rate of 2.0 L/min and 0.5 L/min, respectively. A catheter was inserted into the tail vein for intravenous administration of the hyperpolarized [3-^13C] acetoacetate inside the MRI scanner. At the end of the study, the animals were sacrificed. Blood and organs were collected and stored at −80° C. for biochemical analysis. All procedures involving animals were approved by A*STAR Institutional Animal Care and Use Committee (#171204)
Rats were positioned supine in a 9.4 T horizontal bore MR scanner interfaced to a Avance III HD console (Biospec, Bruker, Germany), with the heart directly above a dual-tuned (^1H/^13C) rat surface coil (diameter: 30 mm). Correct positioning was confirmed by the acquisition of an axial proton FLASH image (TE/TR, 8.0/100.0 ms; matrix size, 128×128; FOY, 40×40 mm; slice thickness, 1.5 mm; excitation flip angle, 30°). A cardiac-triggered and respiratory-gated shim was used to reduce the proton linewidth to approximately 160 Hz. Immediately before injection, a respiratory-gated ^13C MR pulse-acquire spectroscopy sequence was initiated. Then, hyperpolarized [3-^13C]acetoacetate (0.75-1.05 mL; 0.240 mmol/kg body weight) was injected via tail vein at a rate of 6 mL/min. Sixty individual heart spectra were acquired over 2 minutes after injection (TR, 2 s; excitation flip angle, 25°; sweep width, 8,000 Hz; acquired points, 4,096; frequency centered at 190 ppm from tetramethylsilane (TMS) standard).
Cardiac ^13C MR spectra were analyzed using the AMARES algorithm as implemented in the jMRUI software package (Naressi A, et al. Magn Reson Mater Physics, Biol Med. 2001; 12:141). Spectra were baseline and DC offset-corrected based on the last half of acquired points. To quantify myocardial ketone metabolism, spectra were summed over the first 30 seconds upon acetoacetate arrival. Peaks corresponding to [3-^13C]acetoacetate and its metabolic derivatives [5-^13C]glutamate, [1-^13C]acetoacetate, and [1-^13C]acetylcarnitine were fitted with prior knowledge assuming a Lorentzian line shape, peak frequencies, relative phases, and linewidths. The fitted amplitudes were then normalized to the amplitude of [3-^13C]acetoacetate.

[4] = test system: insulin secretion; conditions: infusion in man, concentration higher than 2 mM; cited from earlier work
[5] = biological target: T1, sodium/glucose co-transporter-2 (SGLT-2) (Homo sapiens, UniProt P31639); conditions: cited from earlier work
T1 construct: host or cells: diabetic patients (in vivo)
T1 sequence (P31639 1-672): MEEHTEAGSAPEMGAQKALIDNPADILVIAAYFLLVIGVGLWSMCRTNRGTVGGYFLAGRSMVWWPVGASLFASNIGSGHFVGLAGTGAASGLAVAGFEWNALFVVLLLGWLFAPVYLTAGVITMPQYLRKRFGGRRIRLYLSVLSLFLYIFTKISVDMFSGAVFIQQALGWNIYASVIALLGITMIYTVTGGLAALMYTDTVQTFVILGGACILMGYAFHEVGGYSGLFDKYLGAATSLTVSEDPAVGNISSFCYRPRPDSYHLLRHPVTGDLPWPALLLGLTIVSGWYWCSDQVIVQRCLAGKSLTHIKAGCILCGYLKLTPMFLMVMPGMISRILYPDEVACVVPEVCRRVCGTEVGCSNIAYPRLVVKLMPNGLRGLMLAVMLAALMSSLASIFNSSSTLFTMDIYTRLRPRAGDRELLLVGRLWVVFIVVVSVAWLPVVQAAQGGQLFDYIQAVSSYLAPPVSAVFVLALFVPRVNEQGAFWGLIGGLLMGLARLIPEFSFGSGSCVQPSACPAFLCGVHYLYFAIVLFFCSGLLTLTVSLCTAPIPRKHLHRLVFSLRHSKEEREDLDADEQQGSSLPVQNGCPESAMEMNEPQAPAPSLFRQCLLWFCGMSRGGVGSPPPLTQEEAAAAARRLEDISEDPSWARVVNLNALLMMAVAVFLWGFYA

[6] = test system: myocardial infarct; conditions: fasted rats, ischemia-reperfusion; cited from earlier work
[7] = test system: blood glucose; test: Intraperitoneal insulin tolerance test (IpITT); assay type: in vivo, rat; conditions: diabetic GK rats, insulin 1 U/kg i.p.
Method: The response to insulin glucose tolerance was determined by measuring the blood glucose levels before and at 60, 120, 180, 240, 300, and 360 minutes after intraperitoneal injection of insulin solution (1 U/kg body weight).

[8] = diabetic GK vs control rats, P=0.002
[9] = rat heart, i.v., 13C MRS time resolution 2 s

## C[13C](=O)CC(=O)[O-].[Li+] [[3-^13C]acetoacetate, lithium [3-^13C]acetoacetate]
[1]; GK rats
  calculated acetoacetate concentration in the blood after injection: 4.30 mM
[1]; control rats
  calculated acetoacetate concentration in the blood after injection: 4.27 mM
[2]; 120 min microwave irradiation at 1.2 K, DNP
  achieved polarization: 10.3±1.2% and 10%
[2]; after 120 min microwave irradiation at 1.2 K
  T1: 28.2 ± 3.1 s
[3]; diabetic GK vs control rats, P=0.001
  production of [3-13C]β-OHB: lower in diabetic rats than in control rats
[3]; [8]
  production of [5-13C]glutamate: higher in the diabetic rats than in controls
  total production of [5-13C]glutamate+[1-13C]citrate: also higher in the diabetic rats compared with controls
[3]; diabetic GK vs control rats, normalized to [3-13C]acetoacetate, P=0.009
  total products of ketone body utilization ([5-13C]glutamate+[1-13C]acetylcarnitine): higher in the diabetic rats compared with controls
[3]; rat heart in vivo, i.v. injection
  [5-13C]glutamate metabolite signal, relative to [3-13C]acetoacetate signal: 2-4 % of the [3-13C]acetoacetate s
[3]; [9]
  appearance of 13C label in [1-13C]acetylcarnitine and [5-13C]glutamate after acetoacetate peaks: 2 to 4 s
  appearance of [1-13C]citrate: 8 to 10 s

## CC(=O)CC(=O)O [acetoacetate]
[4]
  effect on insulin secretion: transient stimulatory effect on insulin secretion
  time after which the effect on insulin secretion abates: 10 to 15 min

## OC[C@H]1O[C@@H](c2ccc(Cl)c(Cc3ccc(O[C@H]4CCOC4)cc3)c2)[C@H](O)[C@@H](O)[C@@H]1O [empagliflozin]
[5]; after empagliflozin treatment
  plasma ketone body concentration: increase in plasma ketone body concentration
[5]; diabetic patients
  cardiovascular outcome: improved cardiovascular outcome

## CC(O)CC(=O)O (stereo not drawn) [β-OHB, β-hydroxybutyrate]
[6]
  myocardial infarct size and apoptosis: reduced myocardial infarct size and apoptosis

## insulin: insulin solution injected intraperitoneally in the insulin tolerance test
[7]
  blood glucose during insulin tolerance test: lowered blood glucose
